Entries after “also recorded” stand apart in the source; their conditions may differ.
Experiments:
[1] = DPPH scavenging antioxidant activity; conditions: for antioxidant activity compared with Vitamin C: DPPH
Method: The antioxidant activity of ten compounds was determined using DPPH [32–34]. A solution 1: prepared by dissolving DPPH (0.002 g) in ethanol (50 mL etnanol). Solution 2: prepared by dissolving different weights 0.05, 0.01 g of each sample in 1 mL of DMSO then take 10 µL of each sample solution with 1 mL ethanol. Then mix 1 mL of solution 1 with 1 mL of solution 2 then vortex the resulting mixture in the dark for about 30 min. The absorbance of the mixture was measured by spectrophotometer at λmax = 517 nm against blank 1 mL absolute ethanol and compared to the ascorbic acid (Vitamin C).
Ten newly synthesized compounds were studied as in vitro antioxidants by measuring of their DPPH scavenging activity which is represented as a percentage % [32]^. Results are represented by mean ± SD of three replicates. […] The higher dose concentration of 0.05 μg/mL represents higher antioxidant activity. […] The high antioxidant activity is referred to the presence of C=O, NH2, and OH groups like ascorbic acid which can be easily oxidized and reduced and can be used as antioxidant drugs. (Fig. 8 and Table 9).

MCF7 cell line = test: In vitro cytotoxic activity, MTT method, MCF7; assay type: cell-based, human; conditions: for IC50: Homo sapiens, MCF7, MCF7 cell line, MTT
Method: (§1) Cell lines: The in vitro human breast cancerous cell line (MCF7), lung cancerous cell lines (A549) and normal cell lines were purchased from Serum and Vaccine formulation in Cairo-Egypt.
(§2) In vitro cytotoxic activity of all synthesized compounds against two human breast cell line (MCF7) and lung cell lines (A549) was evaluated according to the MTT method. Firstly, Growth the cell line medium in 96 well tissue culture plate was injected with 10^5 cells/mL (100 uL/plate well) of the cell line and incubated at 37 °C for 24 h to develop a monolayer sheet then the formed growth medium was poured from 96 well microtiter plates after the confluent sheet of cells. […] Secondly, add 0.1 mL of each concentration tetrahydroisoquinoline sample to each plate. The plates were incubated at 37 °C. Thirdly MTT solution (5 mg/mL in PBS) is prepared. Add 20 µL of MTT solution to each well plates. And shaking in 150 rpm for 5 min, to mix the MTT into the media. Then incubate at (37 °C, 5% CO2) for 1–5 h. Finally read the optical density at 560 nm and subtract background at 620 nm.
(§3) In this work, doxorubicin was used as a positive control drug for comparison with the synthesized compounds under the same experimental conditions.

A549 cell line = test: In vitro cytotoxic activity, MTT method, A549; conditions: for IC50: Homo sapiens, read-out: IC50 ± SD
Method: as §1, §2, §3

Question: For `CC(=O)C1C(c2ccc(N(C)C)cc2)c2c(C)nc(SCC(=O)Nc3ccc(Cl)cc3)c(C#N)c2CC1(C)O` (stereo not shown) [Compound 7c, 2-[(7-Acetyl-4-cyano-1,6-dimethyl-6-hydroxy-8-(4-N,N-dimethylamino-phenyl)-,5,6,7,8-tetrahydroisoquinolin-3-yl)thio]-N-(4-chlorophenyl)acetamide], which “DPPH scavenging, inhibition (%)” value ([1]; 0.01 µg/mL) is on record?
Answer: 77.90 ± 6.22%

Question: What about the “DPPH scavenging, inhibition (%)” value ([1]; 0.05 µg/mL) of the same molecule?
Answer: 81.39 ± 4.99%

Question: What about the “antioxidant activity compared with Vitamin C” value [1] of the same molecule?
Answer: higher result than Vitamin C; also recorded: higher antioxidant activity than Vitamin C

Question: And the IC50 (MCF7 cell line)?
Answer: 1491 ± 4 nM

Question: And the Toxicity % (MCF7 cell line; MCF7, 0.0487 µMol)?
Answer: -0.6776%

Question: What about the Viability % (MCF7 cell line; MCF7, 0.0487 µMol) of the same molecule?
Answer: 100.4%

Question: What about the Toxicity % (MCF7 cell line; MCF7, 0.0975 µMol) of the same molecule?
Answer: -0.5335%

Question: And the Viability % (MCF7 cell line; MCF7, 0.0975 µMol)?
Answer: 100.6%

Question: What about the Viability % (MCF7 cell line; MCF7, 0.195 µMol) of the same molecule?
Answer: 99.47%

Question: What about the Viability % (MCF7 cell line; MCF7, 0.391 µMol) of the same molecule?
Answer: 100.1634%

Question: And the Toxicity % (MCF7 cell line; MCF7, 0.781 µMol)?
Answer: 8.333%

Question: And the Viability % (MCF7 cell line; MCF7, 0.781 µMol)?
Answer: 91.67%

Question: And the Toxicity % (MCF7 cell line; MCF7, 1.562 µMol)?
Answer: 36.68%

Question: And the Viability % (MCF7 cell line; MCF7, 1.562 µMol)?
Answer: 63.32%

Question: And the Toxicity % (MCF7 cell line; MCF7, 3.125 µMol)?
Answer: 65.48%

Question: And the Viability % (MCF7 cell line; MCF7, 3.125 µMol)?
Answer: 34.52%

Question: And the Toxicity % (MCF7 cell line; MCF7, 6.25 µMol)?
Answer: 86.36%

Question: What about the Viability % (MCF7 cell line; MCF7, 6.25 µMol) of the same molecule?
Answer: 13.64%

Question: And the Toxicity % (MCF7 cell line; MCF7, 12.5 µMol)?
Answer: 80.15%

Question: And the Viability % (MCF7 cell line; MCF7, 12.5 µMol)?
Answer: 19.85%

Question: What about the Toxicity % (MCF7 cell line; MCF7, 25 µMol) of the same molecule?
Answer: 96.77%

Question: What about the Viability % (MCF7 cell line; MCF7, 25 µMol) of the same molecule?
Answer: 3.227%

Question: And the Toxicity % (A549 cell line; A549, Conc. 0.04875 µMol)?
Answer: 3.457%

Question: What about the Viability % (A549 cell line; A549, Conc. 0.04875 µMol) of the same molecule?
Answer: 96.54%

Question: And the Toxicity % (A549 cell line; A549, Conc. 0.0975 µMol)?
Answer: 4.658%

Question: And the Viability % (A549 cell line; A549, Conc. 0.0975 µMol)?
Answer: 95.3422%

Question: What about the Toxicity % (A549 cell line; A549, Conc. 0.195 µMol) of the same molecule?
Answer: 6.193%

Question: And the Viability % (A549 cell line; A549, Conc. 0.195 µMol)?
Answer: 93.81%

Question: And the Toxicity % (A549 cell line; A549, Conc. 0.391 µMol)?
Answer: 33.41%

Question: What about the Viability % (A549 cell line; A549, Conc. 0.391 µMol) of the same molecule?
Answer: 66.59%

Question: What about the Toxicity % (A549 cell line; A549, Conc. 0.781 µMol) of the same molecule?
Answer: 51.48%

Question: And the Viability % (A549 cell line; A549, Conc. 0.781 µMol)?
Answer: 48.52%

Question: And the Toxicity % (A549 cell line; A549, Conc. 1.562 µMol)?
Answer: 68.05%

Question: What about the Viability % (A549 cell line; A549, Conc. 1.562 µMol) of the same molecule?
Answer: 31.95%

Question: What about the Toxicity % (A549 cell line; A549, Conc. 3.125 µMol) of the same molecule?
Answer: 77.2%

Question: And the Viability % (A549 cell line; A549, Conc. 3.125 µMol)?
Answer: 22.8%

Question: And the Toxicity % (A549 cell line; A549, Conc. 6.25 µMol)?
Answer: 90.57%

Question: And the Viability % (A549 cell line; A549, Conc. 6.25 µMol)?
Answer: 9.428%

Question: And the Toxicity % (A549 cell line; A549, Conc. 12.5 µMol)?
Answer: 95.94%

Question: What about the Viability % (A549 cell line; A549, Conc. 12.5 µMol) of the same molecule?
Answer: 4.063%

Question: And the Toxicity % (A549 cell line; A549, Conc. 25 µMol)?
Answer: 97.44%

Question: What about the Viability % (A549 cell line; A549, Conc. 25 µMol) of the same molecule?
Answer: 2.564%

Question: What about the IC50 (A549 cell line) of the same molecule?
Answer: 496 ± 3 nM

Question: With `CSc1nc(C)c2c(c1C#N)CC(C)(O)C(C(C)=O)C2c1ccc(N(C)C)cc1` (stereo not shown) [Compound 3, 7-Acetyl-4-cyano-1,6-dimethyl-3-methylthio-6-hydroxy-8-(4-N,N-dimethyl-aminophenyl)-5,6,7,8-tetrahydroisoquinoline] as the molecule, how does the “DPPH scavenging, inhibition (%)” value ([1]; 0.01 µg/mL) read?
Answer: 25.58 ± 2.20%

Question: And the “DPPH scavenging, inhibition (%)” value ([1]; 0.05 µg/mL)?
Answer: 81.39 ± 3.87%

Question: What about the “antioxidant activity compared with Vitamin C” value [1] of the same molecule?
Answer: higher result than Vitamin C; also recorded: higher antioxidant activity than Vitamin C

Question: What about the IC50 (MCF7 cell line) of the same molecule?
Answer: 562 ± 7 nM

Question: What about the Toxicity % (MCF7 cell line; MCF7, 0.0487 µMol) of the same molecule?
Answer: 5.124%

Question: And the Viability % (MCF7 cell line; MCF7, 0.0487 µMol)?
Answer: 94.876%

Question: And the Toxicity % (MCF7 cell line; MCF7, 0.0975 µMol)?
Answer: 7.124%

Question: And the Viability % (MCF7 cell line; MCF7, 0.0975 µMol)?
Answer: 92.876%

Question: And the Toxicity % (MCF7 cell line; MCF7, 0.195 µMol)?
Answer: 8.333%

Question: What about the Viability % (MCF7 cell line; MCF7, 0.195 µMol) of the same molecule?
Answer: 91.67%

Question: What about the Toxicity % (MCF7 cell line; MCF7, 0.391 µMol) of the same molecule?
Answer: 38.81%

Question: What about the Viability % (MCF7 cell line; MCF7, 0.391 µMol) of the same molecule?
Answer: 61.19%

Question: What about the Toxicity % (MCF7 cell line; MCF7, 0.781 µMol) of the same molecule?
Answer: 66.75%

Question: What about the Viability % (MCF7 cell line; MCF7, 0.781 µMol) of the same molecule?
Answer: 33.25%

Question: And the Toxicity % (MCF7 cell line; MCF7, 1.562 µMol)?
Answer: 82.8%

Question: And the Viability % (MCF7 cell line; MCF7, 1.562 µMol)?
Answer: 17.2%

Question: And the Toxicity % (MCF7 cell line; MCF7, 3.125 µMol)?
Answer: 91.22%

Question: And the Viability % (MCF7 cell line; MCF7, 3.125 µMol)?
Answer: 8.783%

Question: And the Toxicity % (MCF7 cell line; MCF7, 6.25 µMol)?
Answer: 95.14%

Question: And the Viability % (MCF7 cell line; MCF7, 6.25 µMol)?
Answer: 4.861%

Question: What about the Toxicity % (MCF7 cell line; MCF7, 12.5 µMol) of the same molecule?
Answer: 97.43%

Question: And the Viability % (MCF7 cell line; MCF7, 12.5 µMol)?
Answer: 2.574%

Question: And the Toxicity % (MCF7 cell line; MCF7, 25 µMol)?
Answer: 97.06%

Question: What about the Viability % (MCF7 cell line; MCF7, 25 µMol) of the same molecule?
Answer: 2.941%

Question: And the Toxicity % (A549 cell line; A549, Conc. 0.0487 µMol)?
Answer: 0.30%

Question: What about the Viability % (A549 cell line; A549, Conc. 0.0487 µMol) of the same molecule?
Answer: 99.700%

Question: And the Toxicity % (A549 cell line; A549, Conc. 0.0975 µMol)?
Answer: 0.50%

Question: What about the Viability % (A549 cell line; A549, Conc. 0.0975 µMol) of the same molecule?
Answer: 99.50%

Question: And the Toxicity % (A549 cell line; A549, Conc. 0.195 µMol)?
Answer: 0.789%

Question: And the Viability % (A549 cell line; A549, Conc. 0.195 µMol)?
Answer: 99.21%

Question: And the Toxicity % (A549 cell line; A549, Conc. 0.391 µMol)?
Answer: 5.089%

Question: And the Viability % (A549 cell line; A549, Conc. 0.391 µMol)?
Answer: 94.91%

Question: And the Toxicity % (A549 cell line; A549, Conc. 0.781 µMol)?
Answer: 23.59%

Question: What about the Viability % (A549 cell line; A549, Conc. 0.781 µMol) of the same molecule?
Answer: 76.41%

Question: What about the Toxicity % (A549 cell line; A549, Conc. 1.562 µMol) of the same molecule?
Answer: 38.19%

Question: And the Viability % (A549 cell line; A549, Conc. 1.562 µMol)?
Answer: 61.81%

Question: And the Toxicity % (A549 cell line; A549, Conc. 3.125 µMol)?
Answer: 53.18%

Question: What about the Viability % (A549 cell line; A549, Conc. 3.125 µMol) of the same molecule?
Answer: 46.82%

Question: And the Toxicity % (A549 cell line; A549, Conc. 6.25 µMol)?
Answer: 70.73%

Question: What about the Viability % (A549 cell line; A549, Conc. 6.25 µMol) of the same molecule?
Answer: 29.27%

Question: What about the Toxicity % (A549 cell line; A549, Conc. 12.5 µMol) of the same molecule?
Answer: 89.43%

Question: And the Viability % (A549 cell line; A549, Conc. 12.5 µMol)?
Answer: 10.57%

Question: And the Toxicity % (A549 cell line; A549, Conc. 25 µMol)?
Answer: 96.45%

Question: What about the Viability % (A549 cell line; A549, Conc. 25 µMol) of the same molecule?
Answer: 3.55%

Question: And the IC50 (A549 cell line)?
Answer: 2469 ± 6 nM

— publication PMC10873978, “Novel tetrahydroisoquinolines as DHFR and CDK2 inhibitors: synthesis, characterization, anticancer activity and antioxidant properties” (BMC Chemistry, 2024)
